Results on one substance are retold here after patent US10130677B2, “Antimicrobial peptide and uses thereof” (priority 2013, dated 2018).

Where two headings read alike, the source gives them in different places. Bounds are passed on as bounds.

For one experiment, the system named is S. aureus JAR060131. In kind it is cell-based, Staphylococcus aureus. Particulars: for IC99.9: approx. 1 × 10^6 CFU/ml S. aureus JAR, within 2 hrs (Table 2). On the procedure:
Polypeptides of the invention preferably have an in vitro IC99.9 of at most 150 μM after 2 hours at 37° C. against at least one microbial species in the presence of 50% plasma. Said IC99.9 is preferably determined in accordance with a method for determining the antimicrobial activity as described herein in the Examples. Said method described in the Examples for determining antimicrobial activity of microbes not associated with biofilm involves the mixing of 50 microL of a solution of a polypeptide in PBS with addition of human plasma at a final concentration of 50% and 20 microL of bacterial suspension with 5×10^6 CFU per mL of PBS in a well. After incubation of this mixture for 2 hours at 37° C. under shaking conditions, a sample is used for assessment of the bacterial counts. The lowest peptide concentration at which there is 99.9% of bacteria killed, is called the inhibitory concentration (IC) 99.9. Bacterial counts can be determined by manual CFU counting. For determining antibacterial activity for instance 1×10^6 CFU/ml bacteria are used, for determining antifungal activity for instance 1×10^5 cells/ml are used.
(§1) Peptides were incubated with 1×10^6 CFU/ml of a mid-logarithmic culture of S. aureus JAR060131, methicillin resistant S. aureus (MRSA) LUH14616, Staphylococcus epidermidis RP62a, and Pseudomonas aeruginosa PAO1 in PBS without or with addition of pooled human plasma (Sanquin, Amsterdam, the Netherlands) at a final concentration of 50%. Antimicrobial activity is expressed as the 99.9% lethal concentration (LC99.9), i.e., the lowest peptide concentration which killed ≥99.9% of bacteria after 2 hours of incubation at 37° C. under shaking conditions.

Experiment [1] has as its system methicillin resistant S. aureus (MRSA) LUH14616. In kind it is cell-based, Staphylococcus aureus. On the procedure: as §1
Experiment [2] relates to stationary phase S. aureus JAR060131. In kind it is cell-based, Staphylococcus aureus. On the procedure: Bacteria were stored at −80° C. until use. Inoculi of mid log phase bacteria were prepared by incubating isolated bacterial colonies from blood agar plates in Tryptic Soy Broth (TSB) medium (Becton Dickinson, Le Pont de Clax, France) for 2.5 hours and then diluted to the concentration needed. Stationary phase S. aureus JAR060131 was obtained from 18-20 hour cultures.
To assess the antimicrobial activity of the peptides towards stationary phase bacteria, peptides were incubated under the conditions described above with 1×10^6 CFU/ml of stationary phase S. aureus JAR060131, obtained from 18-20 hour cultures.

For experiment [3], the system named is S. aureus JAR060131 biofilm formation. It is filed as cell-based, Staphylococcus aureus. The method, then: After solubilization with ethanol, the optical density at 590 nm is determined as a measure of biofilm mass.
Peptides were incubated with 1×10^8 CFU/ml of S. aureus JAR060131 in biofilm-adjusted BM2 in 96-wells polypropylene plates as described in Antimicrob Agents Chemother 2012; 56: 2696-2704. After 24 hours incubation at 37° C., planktonic bacteria were removed by four washes with PBS and biofilms were stained with crystal violet. After solubilization with ethanol, the optical density at 590 nm was determined as a measure of biofilm mass.
To assess the antibiofilm activity of the peptides in the presence of plasma, 96-wells polypropylene plates were coated with plasma by overnight incubation with 20% plasma at 4° C. Wells were washed once with sterile water and inoculated with S. aureus and peptides as described above.

For experiment [4], the system named is LPS (E. coli 054)-induced IL-12p40 production. In words: LPS neutralization in whole human blood. It is filed as cell-based. The source says:
The term “anti-inflammatory activity” of a polypeptide as used herein refers to inhibiting, reducing or preventing an inflammatory response in a subject that has been infected by microbes, e.g. bacteria, viruses, fungi, and/or parasites. Anti-inflammatory activity of polypeptides of the invention is achieved by inhibiting, reducing or preventing the release of pro-inflammatory microbial compounds, such as lipoteichoic acid (LTA), peptidoglycan (PG) and/or lipopolysaccharides (LPS). Anti-inflammatory activity can be measured by methods known in the art. Examples of such method are a LPS neutralization assay and a LTA neutralization assay as described in the Examples of this application. In such method, a polypeptide of the invention is mixed with a fixed concentration of LPS or LTA, such as 500 ng/ml LPS or 2 mg/ml LTA, and incubated for 30 min. Thereafter, these mixtures were added to diluted fresh human whole blood and 20 hours thereafter the level of cytokines (e.g. 1L-8 for LTA and 1L-12p40 for LPS) in the blood sample are measured by ELISA.
Peptides were pre-incubated with 500 ng/ml LPS (E. coli 054) or 2 mg/ml LTA (S. aureus, endotoxin-free) or 1×10^9 CFU/ml of UV-killed S. aureus JAR060131 for 30 min at 37° C. Diluted whole human blood was stimulated with the peptide-LPS/LTA/S. aureus mixtures for 20 hours at 37° C. IL-12p40 and IL-8 levels in supernatants were determined using ELISA.

For another experiment, the system named is bacteria. It is filed as cell-based. The source says:
The currently known AMPs, including OP-145, still have a few drawbacks. For instance, various bacteria, such as P. aeruginosa, E. faecalis, Proteus mirabilis, Streptococcus pyogenes and S. aureus all secrete proteases that degrade several antimicrobial peptides, such as the cathelicidin LL-37. Thus, protease resistant antimicrobial peptides are advantageous from a therapeutical standpoint. Furthermore, due to potential lytic effect as well as other properties of AMPs against bacterial but also mammalian membranes, one of the challenges in designing new peptides relies on developing AMPs with high specificity against microorganisms such as bacterial or fungal cells as compared to cellular membranes of the infected patient, i.e., a high therapeutic index (minimal hemolytic concentration/minimal antimicrobial activity; MHC/MEC). Another important disadvantage of known AMPs, including OP-145, is that its activity is strongly affected by the presence of plasma components. For instance, for OP-145 the LC99.9 (the lowest peptide concentration which kills ≥99.9% of bacteria) in PBS of 1.6 μM, whereas the LC99.9 in PBS/plasma (1:1) is about 200 μM. This is in particular a disadvantage for systemically administered AMPs.

The IC90 is the point of the concentration-response curve where the effect stands at 90%. As for “Ac-IGKEFKRIVERIKRFLRELVRPLR-NH2 [OP-145, JIGKEFKRIVERIKRFLRELVRPLRB, reference compound]”, the IC99.9 in the experiment on S. aureus JAR060131 (50% plasma) came to 204.8 µM; in the experiment with S. aureus JAR060131 (PBS), 1.6 µM. Moreover, the LC99.9 in the experiment with S. aureus JAR060131 (50% plasma, mid-logarithmic culture, median of at least two experiments (Table 3)) is 204.8 µM; with S. aureus JAR060131 (JAR060131, 2 h), 1.6 µM; in experiment [1] (50% plasma, mid-logarithmic culture, median (Table 3)), 204.8 µM; in experiment [1] (methicillin resistant LUH14616) it was 1.6 µM; in experiment [2] (50% plasma, stationary suspension, mean of three experiments (Table 4)), greater than 204.8 µM; in experiment [2] (stationary phase JAR060131), 1.6 µM. Further, the values for the LC99.9 with bacteria (PBS) and in the experiment with bacteria (PBS/plasma (1:1)) were 1.6 µM and “about 200 μM”, respectively. Moreover, the IC50 came to 3200 nM in experiment [3] (JAR060131 biofilm formation, 24 h); 3200 nM in experiment [3] (plasma-coated wells (FIG. 3B), read-out: concentration inhibiting biofilm formation for 50%); 0.15 nM in experiment [4] (diluted whole human blood, 20 hours). The IC90 in experiment [4] (LPS-induced IL-12p40, blood from two donors) was found to be 1.25 nM.
